Test results taken from patent US20100233737A1, “MARKER SPECIFIC TO AN OXIDATIVE DEGRADATION OF TISSUES CONTAINING TYPE III COLLAGEN, MEANS AND METHODS AND KITS FOR THE DIAGNOSIS, MONITORING OR PROGNOSIS OF PATHOLOGIES TARGETED BY THIS MARKER” (priority 2006, published 2010).
No end group written: not given here.

System: antiserum anti-IIINys (polyclonal, directed against SEQ ID No. 2)
Assay: Competitive ELISA, specificity of the antiserum anti IIINys vis-à-vis different peptides
Format: binding, rabbit
Details: biotinylated IIINys coated on plate, competitor peptide in solution
Protocol: FIG. 4 illustrates the specificity of the polyclonal antibodies prepared vis-à-vis the IIINys, with respect to other synthetic peptides. B/B0 represents the ratio between the quantity of anti-IIINys antibodies fixed to the antigen fixed (“coated”) onto the plate in the presence of competitor compound (B) and in the absence of competitor compound (B0).
Rabbits were injected by intra-peritoneal route with the peptide conjugated to KLH emulsified with Freund's complete adjuvant. This operation was repeated 3 times over three months using the same peptide with Freund's incomplete adjuvant. After each injection a sample of rabbit blood was taken. This blood was left to coagulate for 30 minutes and the whole sample was centrifuged for 10 minutes at 2500 rpm in order to recover the serum. Ten days after the last injection, the rabbits were sacrificed and all the blood was recovered. Each serum sample was titrated by ELISA technique in the presence of the synthetic peptide. The antiserum with the best titre was selected for the finalization of the competitive ELISA (Harlow and Lane, 1988a).
The peptide conjugated to the biotin diluted with the coating buffer is adsorbed on plates avidinated for 2 hours at ambient temperature. After washing, 50 μl of antisera diluted to the optimum titre are added to 50 μl of standard (synthetic peptide diluted in buffer) or to 50 μl of samples to be assayed and are left to incubate overnight at 4° C. After washing, 100 μl of secondary antibodies coupled to the peroxidase directed against the rabbit immunoglobulins are added over one hour at ambient temperature. The wells are washed and 100 μl of substrate (TMB) are added. The reaction is stopped with 100 μl of H2SO4.
The antiserum selected was tested vis-à-vis different peptides according to the ELISA method described previously in order to verify its specificity (FIG. 4). The peptides tested are: the peptide IIINys of sequence SEQ ID No. 2 (the immunogenic peptide), the peptide of sequence SEQ ID No. 3 (the peptide IIINys with only the first tyrosine nitrosylated), the peptide of sequence SEQ ID No. 4 (the peptide IIINys with only the second tyrosine nitrosylated), the peptide of sequence SEQ ID No. 9 (the peptide IIINys with an additional amino acid on the N-terminal side), the peptide of sequence SEQ ID No. 8 (the peptide IIINys with its tyrosines non nytrosylated), 3-nitrotyrosine (FIG. 2), with the nitrosylated BSA of sequence SEQ ID No. 11.

## N[C@@H](Cc1ccc(O)c([N+](=O)[O-])c1)C(=O)O [3-nitrotyrosine, reference compound]
  competition with the peptide IIINys (SEQ ID No. 2) adsorbed on the plate for the antiserum (B/B0, FIG. 4): not capable of entering into competition

## QYDSY*DVKSG [SEQ ID No. 4, the peptide IIINys with only the second tyrosine nitrosylated]
  competition with the peptide IIINys (SEQ ID No. 2) adsorbed on the plate for the antiserum (B/B0, FIG. 4): less affinity than for the peptide IIINys

## QYDSYDVKSG [SEQ ID No. 8, the peptide IIINys with its tyrosines non nitrosylated]
  competition with the peptide IIINys (SEQ ID No. 2) adsorbed on the plate for the antiserum (B/B0, FIG. 4): not capable of entering into competition

## QY*DSYDVKSG [SEQ ID No. 3, the peptide IIINys with only the first tyrosine nitrosylated]
  competition with the peptide IIINys (SEQ ID No. 2) adsorbed on the plate for the antiserum (B/B0, FIG. 4): less affinity than for the peptide IIINys

## PQY*DSY*DVKSG (PQYDSYDVKSG; not fully specified (residues 3, 6); printed as PQY*DSY*DVKSG) [SEQ ID No. 9, the peptide IIINys with an additional amino acid on the N-terminal side, reference compound]
  competition with the peptide IIINys (SEQ ID No. 2) adsorbed on the plate for the antiserum (B/B0, FIG. 4): not capable of entering into competition
